The text below walks through data of EP4772507A1, “AZAINDOLE COMPOUND AND MEDICAL DRUG” (Nippon Shinyaku Co., Ltd., priority 2023, dated 2025).

Structures are written as SMILES. Some results are limits rather than exact numbers.

In data set [1] the target is T1, C-terminal catalytic domain of MALT1 (amino acid residues 329-824) (Homo sapiens, UniProt Q9UDY8).
T1 construct: C-terminal catalytic domain of MALT1 (amino acid residues 329-824)
T1 sequence (Q9UDY8 329-824): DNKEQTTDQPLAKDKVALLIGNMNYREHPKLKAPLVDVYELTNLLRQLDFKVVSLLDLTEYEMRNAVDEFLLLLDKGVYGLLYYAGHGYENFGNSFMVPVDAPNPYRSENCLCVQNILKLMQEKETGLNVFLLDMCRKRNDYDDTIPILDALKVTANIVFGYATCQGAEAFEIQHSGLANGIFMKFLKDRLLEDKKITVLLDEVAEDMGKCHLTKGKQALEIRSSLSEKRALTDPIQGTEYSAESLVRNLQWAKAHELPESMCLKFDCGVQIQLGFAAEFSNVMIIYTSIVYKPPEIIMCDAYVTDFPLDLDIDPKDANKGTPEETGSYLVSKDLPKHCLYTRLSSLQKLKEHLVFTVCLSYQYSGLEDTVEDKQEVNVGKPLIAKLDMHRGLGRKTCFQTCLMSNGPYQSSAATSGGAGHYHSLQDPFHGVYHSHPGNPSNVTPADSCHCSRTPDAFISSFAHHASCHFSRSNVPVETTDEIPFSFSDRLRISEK
In words: MALT1 protease inhibitory activity (enzyme activity inhibition assay, fluorogenic substrate). The format is biochemical. The conditions noted are these: substrate Ac-Leu-Arg-Ser-Arg-AMC 50 µM; 30°C for 2 hours; fluorescence. In outline:
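Human MALT1 catalytic domain (residues 329-824) with Ac-Leu-Arg-Ser-Arg-AMC at 50 µM final, pH 7.5 Tris/HEPES buffer with 0.8 M Na citrate, DTT and CHAPS. Compounds at 0.1 to 10000 nM final, n = 2; reaction 2 h at 30°C. Fluorescence (ex 380/em 460 nm) fitted to a 2-parameter logistic model for IC50.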

Data set [2] relates to HEK293/API2-MALT1/NF-κB reporter cells. In words: Inhibition of reporter activity in HEK293/API2-MALT1/NF-κB reporter cells. It counts as cell-based. To be noted: Homo sapiens, 24 hours with test substance, One-glo luminescence. In a few lines:
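HEK293 cells with constitutive NF-κB activation by API2-MALT1 fusion, carrying an NF-κB reporter; 293T/CMV reporter cells served as negative control. Cells seeded 24 h, then exposed to compound at final 10,000, 1,000, 100 and 10 nM for 24 h at 37 °C; luminescence read with One-glo, IC50 by non-linear regression.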

In a further data set the test system is OCI-Ly3 cell lines. In words: Proliferation inhibition test, ABC-DLBCL cell line OCI-Ly3. To be noted: Homo sapiens; OCI-Ly3 (ABC-DLBCL, NF-κB pathway-dependent); 96 hours; Cell Counting Kit-8; read-out: Proliferation inhibitory activity against OCI-Ly3 IC50. The format is cell-based. In outline:
(§1)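 Cells exposed 96 h at 37 °C to compound at final 10–10,000 nM: OCI-Ly3 (ABC-DLBCL, NF-κB-dependent, IMDM/10% FBS) and SU-DHL-4 (GCB-DLBCL, NF-κB-independent negative control, RPMI-1640/10% FBS). Viability by CCK-8 absorbance at 450 nm after 4 h; IC50 from 2-parameter logistic regression.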
(Formazan colour is commonly taken as a measure of viable cells.)

A further data set concerns SU-DHL-4 cell lines. In words: Proliferation inhibition test, GCB-DLBCL cell line SU-DHL-4 (negative control line). It counts as cell-based. The conditions noted are these: Homo sapiens; SU-DHL-4 (GCB-DLBCL, NF-κB pathway-independent, negative control); 96 hours; Cell Counting Kit-8; read-out: Proliferation inhibitory activity against SU-DHL-4 IC50. In a few lines:
as §1

Data set [3] in a line: Central nervous system (CNS) penetration study in mice. The format is in vivo. To be noted: female, BALB/cCrSlc, mouse, ip, 30 mg/kg intraperitoneally, three hours later, cerebrum and plasma by LC-MS/MS, read-out: Brain-to-plasma concentration ratio (Kp value). The procedure: To evaluate the central nervous system (CNS) penetration of a test substance, a central nervous system penetration study was conducted using mice.
Six-week-old female BALB/cCrSlc mice (Japan SLC) were used. The test substance suspended in 0.5% methylcellulose was intraperitoneally administered to mice at a dose of 30 mg/kg. Three hours later, blood was collected from the abdominal vena cava under isoflurane anesthesia, and plasma was obtained by centrifugation. After exsanguination from the abdominal vena cava, the cerebrum was collected.
The drug concentrations of the collected plasma and cerebrum were measured by LC-MS/MS. To determine the brain penetration of the drug, the brain-to-plasma concentration ratio (Kp value) was calculated.

As for `CC(C)n1cc(C(=O)C2C[C@@H](C)N(c3ncc(F)cc3I)[C@H](C)C2)c2cc(Cl)c(-n3nccn3)nc21` (stereo partly drawn) [Example 17, [5-chloro-1-isopropyl-6-(2H-1,2,3-triazol-2-yl)-1H-pyrrolo[2,3-b]pyridin-3-yl][(2R,6R)-1-(5-fluoro-3-iodopyridin-2-yl)-2,6-dimethylpiperidin-4-yl]methanone], the IC50 in data set [1] turned out to be 0.16 µM; in data set [2], 0.3 µM; in the data set on OCI-Ly3 cell lines it was 0.69 µM; with SU-DHL-4 cell lines, 6.7 µM. Besides, the Kp at 3 h in data set [3] turned out to be 0.26.
The corresponding values for `CCn1cc(C(=O)C2C[C@@H](C)N(c3ncc(F)cc3I)[C@H](C)C2)c2cc(Cl)c(-c3ncccn3)nc21` (stereo partly drawn) [Example 18, [5-chloro-1-ethyl-6-(pyrimidin-2-yl)-1H-pyrrolo[2,3-b]pyridin-3-yl][(2R,6R)-1-(5-fluoro-3-iodopyridin-2-yl)-2,6-dimethylpiperidin-4-yl]methanone] are 0.065 µM, 0.1 µM, 0.48 µM, 6.7 µM and 0.63.
For `CCCn1cc(C(=O)c2cnn(-c3cncc4c(F)cccc34)c2C(F)(F)F)c2cc(Cl)c(-c3ncccn3)nc21` [Example 26, [5-chloro-1-propyl-6-(pyrimidin-2-yl)-1H-pyrrolo[2,3-b]pyridin-3-yl][1-(8-fluoroisoquinolin-4-yl)-5-(trifluoromethyl)-1H-pyrazol-4-yl]methanone] the same measures were 0.051 µM, 0.11 µM, 0.14 µM, 1.4 µM and 0.27.
As for `Cn1cc(C(=O)c2cnn(-c3cccc4nnsc34)c2C(F)(F)F)c2cc(Cl)c(-n3nccn3)nc21` [Example 28, [1-(1,2,3-benzothiadiazol-7-yl)-5-(trifluoromethyl)-1H-pyrazol-4-yl][5-chloro-1-methyl-6-(2H-1,2,3-triazol-2-yl)-1H-pyrrolo[2,3-b]pyridin-3-yl]methanone], the IC50 was 0.024 µM in data set [1], 0.44 µM in data set [2], 0.61 µM in the data set on OCI-Ly3 cell lines and over 10 µM with SU-DHL-4 cell lines. Also, in data set [3], the Kp at 3 h was 1.75.
The corresponding values for `Cn1cc(C(=O)c2cnn(-c3cccc4nnsc34)c2C(F)(F)F)c2cc(Cl)c(-c3ncccn3)nc21` [Example 29, [1-(1,2,3-benzothiadiazol-7-yl)-5-(trifluoromethyl)-1H-pyrazol-4-yl][5-chloro-1-methyl-6-(pyrimidin-2-yl)-1H-pyrrolo[2,3-b]pyridin-3-yl]methanone] are 0.017 µM, 0.22 µM, 1 µM, over 10 µM and 0.98.
